For one experiment, the target named is T1, human DP2 receptor (Homo sapiens, UniProt Q9Y5Y4).
T1 construct: expressed in transfected cells
T1 sequence (Q9Y5Y4 1-395): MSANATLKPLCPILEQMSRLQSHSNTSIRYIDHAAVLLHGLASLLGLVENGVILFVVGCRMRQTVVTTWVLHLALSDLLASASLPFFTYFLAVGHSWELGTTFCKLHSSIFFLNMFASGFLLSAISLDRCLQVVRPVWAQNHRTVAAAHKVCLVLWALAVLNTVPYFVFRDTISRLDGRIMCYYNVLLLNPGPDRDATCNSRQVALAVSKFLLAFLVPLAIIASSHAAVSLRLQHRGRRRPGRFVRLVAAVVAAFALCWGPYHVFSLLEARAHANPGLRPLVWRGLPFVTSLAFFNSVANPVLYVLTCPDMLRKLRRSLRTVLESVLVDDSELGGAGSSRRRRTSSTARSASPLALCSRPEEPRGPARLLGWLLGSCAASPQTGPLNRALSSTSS
The experiment can be described thus: DP2/CRTH2 radioligand binding assay ([3H]PGD2). As to conditions: [3H]PGD2 binding, membranes of HEK293 cells expressing human DP2; read-out: hDP2. The essentials: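 Membranes from HEK293 cells stably expressing recombinant human DP2 incubated 60 min at room temperature with 1 nM [3H]PGD2 and compound in pH 7.4 Hepes/MnCl2/EDTA buffer, ± 0.2% human serum albumin. Bound radioactivity measured after filtration; non-specific binding defined with 10 μM PGD2. IC50 from titration curves.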

For another experiment, the target named is T2, human DP1 receptor (Homo sapiens, UniProt Q13258).
T2 construct: tissue Biological Specialty Corporation; host or cells: human platelet membranes
T2 sequence (Q13258 1-359): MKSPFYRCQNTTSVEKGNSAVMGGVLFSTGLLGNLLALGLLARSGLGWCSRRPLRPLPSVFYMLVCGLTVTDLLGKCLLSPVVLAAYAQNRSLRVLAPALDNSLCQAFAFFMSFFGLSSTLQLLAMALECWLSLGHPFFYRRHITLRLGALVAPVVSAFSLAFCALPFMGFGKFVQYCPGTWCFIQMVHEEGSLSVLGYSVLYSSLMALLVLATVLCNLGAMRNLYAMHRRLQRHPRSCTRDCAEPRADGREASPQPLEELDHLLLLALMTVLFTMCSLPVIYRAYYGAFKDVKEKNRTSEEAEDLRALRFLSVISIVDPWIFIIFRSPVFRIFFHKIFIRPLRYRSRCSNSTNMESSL
Briefly: DP1 radioligand binding assay ([3H]BWA868C, platelet membranes). As to conditions: [3H]BWA868C binding, human platelet membranes; read-out: hDP1. An outline of the steps:
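Human platelet membranes (20 μg protein/well) incubated 60 min at room temperature with 2 nM [3H]BWA868C and compound in 50 mM Hepes, 10 mM MnCl2, 1 mM EDTA, pH 7.4, ± 0.2% human serum albumin. Bound radioactivity measured after filtration; nonspecific binding defined with 10 μM BWA868C; IC50 from titration curves.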

For the compound `CCN(Cc1cc(C(F)(F)F)ccc1-c1cc(C(C)(C)C(=O)O)ccc1OC)C(=O)OCc1ccccc1` [Compound 1-116, 2-{2′-[(Benzyloxycarbonyl-ethyl-amino)-methyl]-6-methoxy-4′-trifluoromethyl-biphenyl-3-yl}-2-methyl-propionic acid], the IC50 at human DP2 receptor was in the range of 300 to 1000 nM; on human DP1 receptor it was 1000 to 30000 nM.
Take `CCN(Cc1cc(C(F)(F)F)ccc1-c1cc(F)cc(CC(=O)O)c1)C(=O)NCc1ccccc1` [Compound 1-159, [2′-(3-Benzyl-1-ethyl-ureidomethyl)-5-fluoro-4′-trifluoromethyl-biphenyl-3-yl]-acetic acid]: the figures for the IC50 at human DP2 receptor and at human DP1 receptor were less than 300 nM and 1000 to 30000 nM, respectively.
As for `COc1ccc(CC(=O)O)cc1-c1ccc(C(F)(F)F)cc1CN(C(C)=O)[C@@H](C)[C@H](O)c1ccccc1` [Compound 1-104, (2′-{[Acetyl-((1S,2R)-2-hydroxy-1-methyl-2-phenyl-ethyl)-amino]-methyl}-6-methoxy-4′-trifluoromethyl-biphenyl-3-yl)-acetic acid], the IC50 on human DP2 receptor and on human DP1 receptor was 1000 to 30000 nM in each case.
Consider `COc1ccc(CC(=O)O)cc1-c1ccc(C(F)(F)F)cc1CN(C(C)=O)[C@@H]1c2ccccc2C[C@@H]1O` [Compound 1-15, (2′-{[Acetyl-((1R,2S)-2-hydroxy-indan-1-yl)-amino]-methyl}-6-methoxy-4′-trifluoromethyl-biphenyl-3-yl)-acetic acid], for which the IC50 on human DP2 receptor and at human DP1 receptor was 1000 to 30000 nM throughout.
On to `CCN(Cc1cc(C(F)(F)F)ccc1-c1cc(CC(=O)O)ccc1OC)C(=O)Cn1cncn1` [Compound 1-150, (2′-{[Ethyl-(2-[1,2,4]triazol-1-yl-acetyl)-amino]-methyl}-6-methoxy-4′-trifluoromethyl-biphenyl-3-yl)-acetic acid], for which the IC50 on human DP2 receptor is 300 to 1000 nM; at human DP1 receptor, 1000 to 30000 nM.
With `CCN(Cc1cc(C(F)(F)F)ccc1-c1cc(C(F)(F)C(=O)O)ccc1OC)C(=O)OCc1ccccc1` [Compound 1-132, {2′-[(Benzyloxycarbonyl-ethyl-amino)-methyl]-6-methoxy-4′-trifluoromethyl-biphenyl-3-yl}-difluoro-acetic acid], the IC50 on human DP2 receptor and on human DP1 receptor was 1000 to 30000 nM throughout.
Consider `CCN(Cc1cc(C(F)(F)F)ccc1-c1cc(CC(=O)O)ccc1OC)C(=O)NCc1ccccn1` [Compound 1-139, [2′-(1-Ethyl-3-pyridin-2-ylmethyl-ureidomethyl)-6-methoxy-4′-trifluoromethyl-biphenyl-3-yl]-acetic acid], for which the IC50 was less than 300 nM on human DP2 receptor and 1000 to 30000 nM at human DP1 receptor.
The matching figures for `CCN(Cc1cc(C(F)(F)F)ccc1-c1cc(CC#N)ccc1OC)C(=O)OCc1ccccc1` [Compound 2-4, (5′-Cyanomethyl-2′-methoxy-4-trifluoromethyl-biphenyl-2-ylmethyl)-ethyl-carbamic acid benzyl ester]: greater than 30000 nM and 1000 to 30000 nM.
Regarding `CCN(Cc1cc(C(F)(F)F)ccc1-c1cc(Cc2nn[nH]n2)ccc1OC)C(=O)C1CC1` [Compound 2-7, Cyclopropanecarboxylic acid ethyl-[2′-methoxy-5′-(2H-tetrazol-5-ylmethyl)-4-trifluoromethyl-biphenyl-2-ylmethyl]-amide], the IC50 at human DP2 receptor and at human DP1 receptor was 1000 to 30000 nM throughout.
Take `CCN(Cc1cc(C(F)(F)F)ccc1-c1cc(CC(=O)O)cc(C(F)(F)F)c1)C(=O)NCc1ccccc1` [Compound 1-158, [2′-(3-Benzyl-1-ethyl-ureidomethyl)-5,4′-bis-trifluoromethyl-biphenyl-3-yl]-acetic acid]: the IC50 was less than 300 nM on human DP2 receptor and 1000 to 30000 nM at human DP1 receptor.
The matching figures for `CCN(Cc1cc(C(F)(F)F)ccc1-c1cc(CC(=O)O)ccc1OC)/C(=N/C#N)NCC1CC1` [Compound 1-146, [2′-(N′-Cyano-N″-cyclopropylmethyl-N-ethyl-guanidinomethyl)-6-methoxy-4′-trifluoromethyl-biphenyl-3-yl]-acetic acid]: less than 300 nM and 1000 to 30000 nM.
For `CCN(Cc1cc(C(F)(F)F)ccc1-c1cc(CC(=O)O)cc(C(F)(F)F)c1)C(=O)OC` [Compound 1-163, {2′-[(Ethyl-methoxycarbonyl-amino)-methyl]-5,4′-bis-trifluoromethyl-biphenyl-3-yl}-acetic acid] the same measures were less than 300 nM and 1000 to 30000 nM.
The matching figures for `CCN(Cc1cc(C(F)(F)F)ccc1-c1cc(CC(N)=O)ccc1OC)C(=O)OCc1ccccc1` [Compound 2-6, (5′-Carbamoylmethyl-2′-methoxy-4-trifluoromethyl-biphenyl-2-ylmethyl)-ethyl-carbamic acid benzyl ester]: 1000 to 30000 nM and 1000 to 30000 nM.
As to `CCN(Cc1cc(C(F)(F)F)ccc1-c1cc(CC(=O)O)ccc1OC)/C(=N/C#N)NCc1ccccn1` [Compound 1-147, [2′-(N′-Cyano-N-ethyl-N″-pyridin-2-ylmethyl-guanidinomethyl)-6-methoxy-4′-trifluoromethyl-biphenyl-3-yl]-acetic acid], the IC50 at human DP2 receptor is less than 300 nM; at human DP1 receptor, 1000 to 30000 nM.
In the case of `CCN(Cc1ccc(C)cc1-c1cc(CC(=O)O)ccc1OC)C(=O)C1CC1` [Compound 1-171, {2′-[(Cyclopropanecarbonyl-ethyl-amino)-methyl]-6-methoxy-5′-methyl-biphenyl-3-yl}-acetic acid], the IC50 is less than 300 nM at human DP2 receptor and 1000 to 30000 nM on human DP1 receptor.
Regarding `CCN(Cc1cc(C(F)(F)F)ccc1-c1cc(CC(=O)O)ccc1OC)C(=O)NCc1ccc(Cl)cc1` [Compound 1-140, {2′-[3-(4-Chloro-benzyl)-1-ethyl-ureidomethyl]-6-methoxy-4′-trifluoromethyl-biphenyl-3-yl}-acetic acid], the IC50 on human DP2 receptor is less than 300 nM; at human DP1 receptor it was 1000 to 30000 nM.
Consider `COc1ccc(CC(=O)O)cc1-c1ccc(C(F)(F)F)cc1CN(C(C)=O)[C@@H]1c2ccccc2C[C@@H]1OC` [Compound 1-16, (2′-{[Acetyl-((1R,2S)-2-methoxy-indan-1-yl)-amino]-methyl}-6-methoxy-4′-trifluoromethyl-biphenyl-3-yl)-acetic acid], for which the IC50 at human DP2 receptor and on human DP1 receptor was 1000 to 30000 nM throughout.
Turning to `CCN(Cc1ccc(C)cc1-c1cc(CC(=O)O)ccc1OC)C(=O)NCc1ccccc1` [Compound 1-173, [2′-(3-Benzyl-1-ethyl-ureidomethyl)-6-methoxy-5′-methyl-biphenyl-3-yl]-acetic acid], the figures for the IC50 on human DP2 receptor and on human DP1 receptor were less than 300 nM and 1000 to 30000 nM, respectively.
The matching figures for `CCN(Cc1ccc(C(F)(F)F)cc1-c1cc(CC(=O)O)ccc1OC)C(=O)OCc1ccc(Cl)cc1` [Compound 1-174, (2′-{[(4-Chloro-benzyloxycarbonyl)-ethyl-amino]-methyl}-6-methoxy-5′-trifluoromethyl-biphenyl-3-yl)-acetic acid]: less than 300 nM and 300 to 1000 nM.
The matching figures for `CCN(Cc1cc(C(F)(F)F)ccc1-c1cc(CC(=O)O)ccc1OC)C(=O)Cn1cccn1` [Compound 1-148, (2′-{[Ethyl-(2-pyrazol-1-yl-acetyl)-amino]-methyl}-6-methoxy-4′-trifluoromethyl-biphenyl-3-yl)-acetic acid]: less than 300 nM and 1000 to 30000 nM.

The values above are taken from patent US8067445B2, “N,N-disubstituted aminoalkylbiphenyl antagonists of prostaglandin D2 receptors” (Panmira Pharmaceuticals, LLC, priority 2008, dated 2011).
